In the NIST ThermoML archive (doi:10.1021/acs.jced.5b00474):

Assay: xn = mol fraction of the nth substance listed
Settings: 101 kPa, Liquid; for speed of sound: Frequency=3 MHz, Sing-around technique in a fixed-path interferometer; for mass density: Vibrating tube method

ClC(Cl)Cl [trichloromethane] + CN1CCCC1=O
Settings	mass density [kg/m3]	speed of sound [m/s]
293.14 K, x2 = 0.1079	1437.79	1051.6
293.15 K, x2 = 0	1488.55	1000.9
293.15 K, x2 = 0.1061	1438.96	1050
293.15 K, x2 = 0.2054	1390.74	1098.6
293.15 K, x2 = 0.2994	1345.24	1146
293.15 K, x2 = 0.4032	1294.06	1198.4
293.15 K, x2 = 0.4961	1249.81	1248.4
293.15 K, x2 = 0.6006	1201.33	1307.8
293.15 K, x2 = 0.6854	1163.12	1359.8
293.15 K, x2 = 0.7986	1114.37	1430.8
298.14 K, x2 = 0.1079	1429.34	1034.9
298.14 K, x2 = 0.2994	1338.24	1130.2
298.14 K, x2 = 0.7986	1109.43	1413
298.15 K, x2 = 0	1479.07	984.33
298.15 K, x2 = 0.2054	1383.07	1082.1
298.15 K, x2 = 0.4032	1287.66	1181.9
298.15 K, x2 = 0.4961	1243.85	1231.9
298.15 K, x2 = 0.6006	1195.78	1290.7
298.15 K, x2 = 0.6854	1157.85	1342.1
298.16 K, x2 = 0.1061	1430.5	1033.6
303.14 K, x2 = 0.1079	1420.85	1018.3
303.14 K, x2 = 0.2994	1331.2	1114.1
303.14 K, x2 = 0.7986	1104.48	1395.1
303.15 K, x2 = 0.1061	1422	1016.3
303.15 K, x2 = 0.2054	1375.36	1065.2
303.15 K, x2 = 0.4032	1281.24	1165.2
303.15 K, x2 = 0.4961	1237.89	1215.2
303.15 K, x2 = 0.6006	1190.22	1273.5
303.15 K, x2 = 0.6854	1152.57	1324.2
303.16 K, x2 = 0	1469.52	967.53
308.14 K, x2 = 0.1079	1412.32	1001.8
308.14 K, x2 = 0.2994	1324.14	1098.1
308.14 K, x2 = 0.7986	1099.52	1377.3
308.15 K, x2 = 0	1459.91	950.62
308.15 K, x2 = 0.1061	1413.45	999.25
308.15 K, x2 = 0.2054	1367.63	1048.3
308.15 K, x2 = 0.4032	1274.79	1148.5
308.15 K, x2 = 0.4961	1231.6	1198.6
308.15 K, x2 = 0.6006	1184.64	1256.3
308.15 K, x2 = 0.6854	1147.28	1306.2
